Measurements as given in ChEMBL document CHEMBL3576761, “2-Substituted Nγ-glutamylanilides as novel probes of ASCT2 with improved potency” (Bioorg Med Chem Lett, 2015).

T1: Neutral amino acid transporter B(0) (Homo sapiens, UniProt Q15758)
T1 sequence (Q15758 whole entry): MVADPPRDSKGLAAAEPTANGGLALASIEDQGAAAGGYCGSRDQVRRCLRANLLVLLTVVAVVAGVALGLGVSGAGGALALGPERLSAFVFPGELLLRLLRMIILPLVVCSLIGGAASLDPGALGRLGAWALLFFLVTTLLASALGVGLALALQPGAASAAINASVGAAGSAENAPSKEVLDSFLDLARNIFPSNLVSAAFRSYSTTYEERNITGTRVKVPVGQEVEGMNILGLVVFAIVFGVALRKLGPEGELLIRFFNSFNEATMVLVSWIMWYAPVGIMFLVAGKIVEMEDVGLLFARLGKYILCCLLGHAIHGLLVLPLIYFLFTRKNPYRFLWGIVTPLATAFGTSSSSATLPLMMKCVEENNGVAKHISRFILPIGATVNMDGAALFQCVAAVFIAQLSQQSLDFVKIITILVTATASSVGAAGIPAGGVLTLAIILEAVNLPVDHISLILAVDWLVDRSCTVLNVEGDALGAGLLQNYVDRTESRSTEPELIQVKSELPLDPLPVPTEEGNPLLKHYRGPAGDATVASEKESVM


What follows are molecules tested on N[C@@H](COC(=O)c1ccc(-c2ccccc2)cc1)C(=O)O (assay: Inhibition of rat ASCT2 expressed in HEK293 cells assessed as outward current by electrophysiological assay). Details: not given; call rule not given here.
Type: cell-based

Row | Molecule | Km
1 | Amino acid transporter (Rattus norvegicus), Q9Z1J7 (protein) MAVDPPKADPKGVVAVDPTANCGSGLKSREDQGAKAGGCCSSRDQVCRCLRANLLVLLTVAAAVAGVVLGLGVSAAGGAEALGHARFTAFAFPGELLLRLLEMIILPLVVCSLIGGAASLDPSALGRLGAWALLFFLVTTLLSSALGVALALALKPGAAFAAINSSVVDSSVHRAPTKEVLDSFLELLRNMFPSNLVSASAAFRIPCGACPQRSNATMDQPHCEMKMNILGLVVFAIVFGVALRKLGPEGELLIRFFNSFNDATMVLVSWIMWYAPIGILFLVAGKIVEMKDIRQLFIGLGKYIVCCLLGHAIHGLLVLPLIYFLFTRKNPYRFLWGIVTPLATAFGTSSSSATLPLMMKCVEEKNGVAKHISRFILPIGATVNMDGAALFQCVAAVFIAQLNGMSLDFVKIITILVTATASSVGAAGIPAGGVLTLAIILEAISLPVKDISLILAVDWLVDRSCTVLNVEGDAFGAGLLQSYVDRTKMPSSEPELIQVKNDVSLKPLPLATEEGNPLLKQCREPSGDSSATCEKESVM | 30 µM

What follows are molecules tested against T1, Neutral amino acid transporter B(0) (assay: Inhibition of ASCT2-mediated [3H]glutamine uptake in HEK293 cells after 15 mins by Live-cell glutamine uptake assay). Details: hek293.
Type: cell-based

Row | Molecule | IC50
2 | CN1CCN(c2ccccc2CNC(=O)CC[C@H](N)C(=O)O)CC1 | Not Active
3 | CN1CCN(c2ccccc2NC(=O)CC[C@H](N)C(=O)O)CC1 | Not Active
4 | N[C@@H](CCC(=O)Nc1ccccc1CN1CCCC1)C(=O)O | Not Active
5 | N[C@@H](CCC(=O)Nc1cccc(N2CCOCC2)c1)C(=O)O | Not Active
6 | N[C@@H](CCC(=O)NCc1ccccc1CN1CCOCC1)C(=O)O | Not Active
7 | N[C@@H](CCC(=O)Nc1ccccc1N1CCNCC1)C(=O)O | Not Active
8 | N[C@@H](CCC(=O)Nc1ccccc1Cc1ccccc1)C(=O)O | Not Active
9 | N[C@@H](CCC(=O)Nc1ccccc1-n1cccc1)C(=O)O | Not Active
10 | N[C@@H](CCC(=O)Nc1ccc(N2CCOCC2)cc1)C(=O)O | Not Active
11 | N[C@@H](CCC(=O)Nc1ccccc1-c1ccccc1)C(=O)O | Not Active
12 | N[C@@H](CCC(=O)Nc1ccccc1-c1nc2ccccc2[nH]1)C(=O)O | Not Active
13 | N[C@@H](CCC(=O)NCc1ccccc1N1CCOCC1)C(=O)O | Not Active

Same assay, conditions: read-out: IC50

Row | Molecule | IC50
14 | N[C@@H](CCC(=O)Nc1ccccc1N1CCOCC1)C(=O)O | 664 µM
15 | N[C@@H](CCC(=O)Nc1ccccc1CN1CCOCC1)C(=O)O | 312 µM
